Measured values reported in publication PMC10518257 (Nature Cancer, 2023).
Values joined by “and” are separate entries in the source; they are usually repeats but may differ in a detail not shown here. Equal entries are not always repeated.

Key:
LUAD-0087AS2 PDX = test: PDX efficacy study; settings: Fig. 6a LUAD-0087AS2; selpercatinib 30 mg/kg BID; individual animals
KIF5B–RET Y806C = biological target: T1, KIF5B–RET Y806C (Homo sapiens, UniProt P07949, Y806C); test: In-cell western assay of RET autophosphorylation; type: cell-based; settings: Jump-In GripTite HEK293 cells, one hour; Mean
T1 construct: Fusion of the RET kinase domain with several N-terminal partners such as kinesin family 5B (KIF5B); KIF5B (N-terminal fusion partner); expressed in transfected cells; host or cells: Jump-In GripTite HEK293 (transient)
T1 sequence (P07949 713-1063 Y806C limits assumed): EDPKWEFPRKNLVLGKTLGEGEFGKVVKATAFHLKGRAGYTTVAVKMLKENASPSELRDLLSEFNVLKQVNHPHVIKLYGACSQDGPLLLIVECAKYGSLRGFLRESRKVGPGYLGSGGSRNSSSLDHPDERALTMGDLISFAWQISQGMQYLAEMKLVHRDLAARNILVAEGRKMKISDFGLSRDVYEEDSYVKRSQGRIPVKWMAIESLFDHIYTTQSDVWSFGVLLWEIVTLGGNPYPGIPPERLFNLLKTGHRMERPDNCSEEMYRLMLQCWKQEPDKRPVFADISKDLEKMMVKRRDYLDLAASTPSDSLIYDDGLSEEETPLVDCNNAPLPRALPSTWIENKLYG

KIF5B–RET I788N = biological target: T2, KIF5B–RET I788N (Homo sapiens, UniProt P07949, I788N); test: In-cell western assay of RET autophosphorylation; type: cell-based; settings: Jump-In GripTite HEK293 cells, one hour; Mean
T2 construct: Fusion of the RET kinase domain with several N-terminal partners such as kinesin family 5B (KIF5B); KIF5B (N-terminal fusion partner); expressed in transfected cells; host or cells: Jump-In GripTite HEK293 (transient)
T2 sequence (P07949 713-1063 I788N limits assumed): as the sequence (P07949 713-1063 Y806C limits assumed) above, with I76N, C94Y counted along it

KIF5B–RET E732K = biological target: T3, KIF5B–RET E732K (Homo sapiens, UniProt P07949, E732K); test: In-cell western assay of RET autophosphorylation; type: cell-based; settings: Jump-In GripTite HEK293 cells, one hour; Mean
T3 construct: Fusion of the RET kinase domain with several N-terminal partners such as kinesin family 5B (KIF5B); KIF5B (N-terminal fusion partner); expressed in transfected cells; host or cells: Jump-In GripTite HEK293 (transient)
T3 sequence (P07949 713-1063 E732K limits assumed): as the sequence (P07949 713-1063 Y806C limits assumed) above, with E20K, C94Y counted along it

KIF5B–RET L730R = biological target: T4, KIF5B–RET L730R (Homo sapiens, UniProt P07949, L730R); test: In-cell western assay of RET autophosphorylation; type: cell-based; settings: Jump-In GripTite HEK293 cells, one hour; Mean
T4 construct: Fusion of the RET kinase domain with several N-terminal partners such as kinesin family 5B (KIF5B); KIF5B (N-terminal fusion partner); expressed in transfected cells; host or cells: Jump-In GripTite HEK293 (transient)
T4 sequence (P07949 713-1063 L730R limits assumed): as the sequence (P07949 713-1063 Y806C limits assumed) above, with L18R, C94Y counted along it

KIF5B–RET L760Q = biological target: T5, KIF5B–RET L760Q (Homo sapiens, UniProt P07949, L760Q); test: In-cell western assay of RET autophosphorylation; type: cell-based; settings: Jump-In GripTite HEK293 cells, one hour; Mean
T5 construct: Fusion of the RET kinase domain with several N-terminal partners such as kinesin family 5B (KIF5B); KIF5B (N-terminal fusion partner); expressed in transfected cells; host or cells: Jump-In GripTite HEK293 (transient)
T5 sequence (P07949 713-1063 L760Q limits assumed): as the sequence (P07949 713-1063 Y806C limits assumed) above, with L48Q, C94Y counted along it

KIF5B–RET L772M = biological target: T6, KIF5B–RET L772M (Homo sapiens, UniProt P07949, L772M); test: In-cell western assay of RET autophosphorylation; type: cell-based; settings: Jump-In GripTite HEK293 cells, one hour; Mean
T6 construct: Fusion of the RET kinase domain with several N-terminal partners such as kinesin family 5B (KIF5B); KIF5B (N-terminal fusion partner); expressed in transfected cells; host or cells: Jump-In GripTite HEK293 (transient)
T6 sequence (P07949 713-1063 L772M limits assumed): as the sequence (P07949 713-1063 Y806C limits assumed) above, with L60M, C94Y counted along it

KIF5B–RET L730Q = biological target: T7, KIF5B–RET L730Q (Homo sapiens, UniProt P07949, L730Q); test: In-cell western assay of RET autophosphorylation; type: cell-based; settings: Jump-In GripTite HEK293 cells, one hour; Mean
T7 construct: Fusion of the RET kinase domain with several N-terminal partners such as kinesin family 5B (KIF5B); KIF5B (N-terminal fusion partner); expressed in transfected cells; host or cells: Jump-In GripTite HEK293 (transient)
T7 sequence (P07949 713-1063 L730Q limits assumed): as the sequence (P07949 713-1063 Y806C limits assumed) above, with L18Q, C94Y counted along it

KIF5B–RET G810S = biological target: T8, KIF5B–RET G810S (Homo sapiens, UniProt P07949, G810S); test: In-cell western assay of RET autophosphorylation; type: cell-based; settings: Jump-In GripTite HEK293 cells, one hour; Mean
T8 construct: Fusion of the RET kinase domain with several N-terminal partners such as kinesin family 5B (KIF5B); KIF5B (N-terminal fusion partner); expressed in transfected cells; host or cells: Jump-In GripTite HEK293 (transient)
T8 sequence (P07949 713-1063 G810S limits assumed): as the sequence (P07949 713-1063 Y806C limits assumed) above, with C94Y, G98S counted along it

KIF5B–RET M759I = biological target: T9, KIF5B–RET M759I (Homo sapiens, UniProt P07949, M759I); test: In-cell western assay of RET autophosphorylation; type: cell-based; settings: Jump-In GripTite HEK293 cells, one hour; Mean (TPX-0046: the three replicates)
T9 construct: Fusion of the RET kinase domain with several N-terminal partners such as kinesin family 5B (KIF5B); KIF5B (N-terminal fusion partner); expressed in transfected cells; host or cells: Jump-In GripTite HEK293 (transient)
T9 sequence (P07949 713-1063 M759I limits assumed): as the sequence (P07949 713-1063 Y806C limits assumed) above, with M47I, C94Y counted along it

KIF5B–RET E768Q = biological target: T10, KIF5B–RET E768Q (Homo sapiens, UniProt P07949, E768Q); test: In-cell western assay of RET autophosphorylation; type: cell-based; settings: Jump-In GripTite HEK293 cells, one hour; Mean
T10 construct: Fusion of the RET kinase domain with several N-terminal partners such as kinesin family 5B (KIF5B); KIF5B (N-terminal fusion partner); expressed in transfected cells; host or cells: Jump-In GripTite HEK293 (transient)
T10 sequence (P07949 713-1063 E768Q limits assumed): as the sequence (P07949 713-1063 Y806C limits assumed) above, with E56Q, C94Y counted along it

KIF5B–RET G810D = biological target: T11, KIF5B–RET G810D (Homo sapiens, UniProt P07949, G810D); test: In-cell western assay of RET autophosphorylation; type: cell-based; settings: Jump-In GripTite HEK293 cells, one hour; Mean
T11 construct: Fusion of the RET kinase domain with several N-terminal partners such as kinesin family 5B (KIF5B); KIF5B (N-terminal fusion partner); expressed in transfected cells; host or cells: Jump-In GripTite HEK293 (transient)
T11 sequence (P07949 713-1063 G810D limits assumed): as the sequence (P07949 713-1063 Y806C limits assumed) above, with C94Y, G98D counted along it

KIF5B–RET G810R = biological target: T12, KIF5B–RET G810R (Homo sapiens, UniProt P07949, G810R); test: In-cell western assay of RET autophosphorylation; type: cell-based; settings: Jump-In GripTite HEK293, 1 h, phospho-RET (Y905)/RET
T12 construct: Fusion of the RET kinase domain with several N-terminal partners such as kinesin family 5B (KIF5B); KIF5B (N-terminal fusion partner); expressed in transfected cells; host or cells: Jump-In GripTite HEK293 (transient)
T12 sequence (P07949 713-1063 G810R limits assumed): as the sequence (P07949 713-1063 Y806C limits assumed) above, with C94Y, G98R counted along it

KIF5B–RET G810A = biological target: T13, KIF5B–RET G810A (Homo sapiens, UniProt P07949, G810A); test: In-cell western assay of RET autophosphorylation; type: cell-based; settings: Jump-In GripTite HEK293 cells, one hour; Mean
T13 construct: Fusion of the RET kinase domain with several N-terminal partners such as kinesin family 5B (KIF5B); KIF5B (N-terminal fusion partner); expressed in transfected cells; host or cells: Jump-In GripTite HEK293 (transient)
T13 sequence (P07949 713-1063 G810A limits assumed): as the sequence (P07949 713-1063 Y806C limits assumed) above, with C94Y, G98A counted along it

KIF5B–RET WT = biological target: T14, KIF5B–RET WT (Homo sapiens, UniProt P07949); test: In-cell western assay of RET autophosphorylation; type: cell-based; settings: Jump-In GripTite HEK293, 1 h, phospho-RET (Y905)/RET
T14 construct: Fusion of the RET kinase domain with several N-terminal partners such as kinesin family 5B (KIF5B); KIF5B (N-terminal fusion partner); expressed in transfected cells; host or cells: Jump-In GripTite HEK293 (transient, pJTI Fast-based vector)
T14 sequence (P07949 713-1063 limits assumed): as the sequence (P07949 713-1063 Y806C limits assumed) above, with C94Y counted along it

KIF5B–RET G736A = biological target: T15, KIF5B–RET G736A (Homo sapiens, UniProt P07949, G736A); test: In-cell western assay of RET autophosphorylation; type: cell-based; settings: Jump-In GripTite HEK293 cells, one hour; Mean
T15 construct: Fusion of the RET kinase domain with several N-terminal partners such as kinesin family 5B (KIF5B); KIF5B (N-terminal fusion partner); expressed in transfected cells; host or cells: Jump-In GripTite HEK293 (transient)
T15 sequence (P07949 713-1063 G736A limits assumed): as the sequence (P07949 713-1063 Y806C limits assumed) above, with G24A, C94Y counted along it

recombinant human RET = biological target: T16, recombinant human RET (Homo sapiens, UniProt P07949); test: RET^WT kinase-inhibition assay (LANCE TR-FRET); type: biochemical; settings: 10 μM ATP
T16 construct: purchased Carna Biosciences, Inc (Kobe, Japan)
T16 sequence (P07949 29-1114): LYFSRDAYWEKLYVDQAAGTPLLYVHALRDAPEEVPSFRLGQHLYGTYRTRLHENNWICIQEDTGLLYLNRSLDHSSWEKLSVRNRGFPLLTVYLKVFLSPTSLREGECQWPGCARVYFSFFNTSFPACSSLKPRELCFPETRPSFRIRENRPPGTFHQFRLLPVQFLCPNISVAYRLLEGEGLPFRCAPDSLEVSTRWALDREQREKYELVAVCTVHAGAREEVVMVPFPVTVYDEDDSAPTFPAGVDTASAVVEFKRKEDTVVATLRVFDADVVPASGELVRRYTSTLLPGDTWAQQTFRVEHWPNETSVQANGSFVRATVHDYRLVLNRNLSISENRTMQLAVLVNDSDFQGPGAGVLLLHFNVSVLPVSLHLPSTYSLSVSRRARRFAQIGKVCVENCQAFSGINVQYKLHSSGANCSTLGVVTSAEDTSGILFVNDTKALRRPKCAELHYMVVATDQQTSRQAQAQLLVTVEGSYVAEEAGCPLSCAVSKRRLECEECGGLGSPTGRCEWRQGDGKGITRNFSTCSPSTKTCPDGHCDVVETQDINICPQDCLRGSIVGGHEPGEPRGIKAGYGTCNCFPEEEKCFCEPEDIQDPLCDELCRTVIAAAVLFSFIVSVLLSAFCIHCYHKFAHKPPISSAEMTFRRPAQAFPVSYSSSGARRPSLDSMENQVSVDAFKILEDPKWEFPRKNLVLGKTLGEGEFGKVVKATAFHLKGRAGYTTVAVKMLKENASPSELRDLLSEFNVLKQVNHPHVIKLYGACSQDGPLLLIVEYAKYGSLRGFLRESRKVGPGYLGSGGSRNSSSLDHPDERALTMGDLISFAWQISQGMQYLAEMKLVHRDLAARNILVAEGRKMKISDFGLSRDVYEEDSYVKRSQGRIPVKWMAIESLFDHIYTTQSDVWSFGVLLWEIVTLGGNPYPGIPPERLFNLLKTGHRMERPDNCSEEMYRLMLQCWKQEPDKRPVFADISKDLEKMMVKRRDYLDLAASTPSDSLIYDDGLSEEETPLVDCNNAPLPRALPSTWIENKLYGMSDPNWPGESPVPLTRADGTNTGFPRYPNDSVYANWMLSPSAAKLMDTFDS

in vivo = settings: male, BALB/c, mouse, brain and plasma, po, 50 mg/kg, Kp,uu,brain (unbound brain/plasma concentration ratio), male BALB/c mice, 50 mg per kg oral, 0.5 h or 1 h
[1] = biological target: panel of 255 (vepafestinib) or 256 (all other inhibitors) recombinant kinases; test: Kinase selectivity profiling at a single concentration (Carna Biosciences); type: biochemical; settings: 26 nM, 256 kinases
KIF5B–RET G810C = biological target: T17, KIF5B–RET G810C (Homo sapiens, UniProt P07949, G810C); test: In-cell western assay of RET autophosphorylation; type: cell-based; settings: Jump-In GripTite HEK293 cells, one hour; Mean
T17 construct: Fusion of the RET kinase domain with several N-terminal partners such as kinesin family 5B (KIF5B); KIF5B (N-terminal fusion partner); expressed in transfected cells; host or cells: Jump-In GripTite HEK293 (transient)
T17 sequence (P07949 713-1063 G810C limits assumed): as the sequence (P07949 713-1063 Y806C limits assumed) above, with C94Y, G98C counted along it

Row | IC50 (KIF5B–RET Y806C) [nM] | IC50 (KIF5B–RET I788N) [nM] | IC50 (KIF5B–RET E732K) [nM] | IC50 (KIF5B–RET L730R) [nM] | IC50 (KIF5B–RET L760Q) [nM] | IC50 (KIF5B–RET L772M) [nM] | IC50 (KIF5B–RET L730Q) [nM] | IC50 (KIF5B–RET G810S) [nM] | IC50 (KIF5B–RET M759I) | IC50 (KIF5B–RET E768Q) [nM] | IC50 (KIF5B–RET G810D) [nM] | IC50 (KIF5B–RET G810R) [nM] | IC50 (KIF5B–RET G810A) [nM] | IC50 (KIF5B–RET WT) [nM] | IC50 (KIF5B–RET G736A) [nM] | IC50 (recombinant human RET) [nM] | Kp uu (in vivo) | kinases inhibited by >50% [1] | IC50 (KIF5B–RET G810C) [nM] | Structure (SMILES) | Change in tumor volume (% from base line) (LUAD-0087AS2 PDX)
1 | – | – | – | – | – | – | – | – | – | – | – | – | – | – | – | – | – | – | – | COc1ccc(CN2C3CC2CN(c2ccc(-c4cc(OCC(C)(C)O)cn5ncc(C#N)c45)cn2)C3)cn1 [Sepercatinib] | -13.818% and -42.542% and -38.123% and -35.767% and -33.072%
2 | 50 | 50.6 | 14.7 | 4.49 | 5.35 | 2.69 | 16.6 | 5.87 | < 1 nM and 1.2 nM and 1.72 nM | 4.05 | 57.9 | 108 | 6.53 | 21.9 | 3.21 | 0.26 ± 0.02 | 0.077 | 39 | 36.1 | C[C@H]1CNC(=O)c2cnn3cc4c(nc23)N(Cc2cc(F)cnc2O1)[C@@H]1CCC[C@@H]1O4 [TPX-0046] | –
